In brackets after ≈: the same amount, converted by molar mass.
System: wheat crown rot
Test: indoor toxicity test (growth rate method)
Type: cell-based
Conditions: toxicity to wheat crown rot
Method: The method of combining indoor toxicity test and field experiment is adopted.
First of all, co-toxicity coefficients of the complex pesticide of different proportions to wheat crown rot are obtained through indoor toxicity test (growth rate method); and then, the control effect is determined through field efficacy test, and the formula proportion and optimal application amount of the complex pesticide are determined.

Compound | EC50
C=CCOC(Cn1ccnc1)c1ccc(Cl)cc1Cl (centres unmarked) [Imazalil (B), Imazalil] | 0.175 µg/mL (≈ 0.589 µM)
OC(Cc1ccccc1Cl)(Cn1nc[nH]c1=S)C1(Cl)CC1 (centres unmarked) [Prothioconazole (A), Prothioconazole] | 1.37 µg/mL (≈ 3.98 µM)

From patent US20240008491A1, “PESTICIDE COMPOSITION FOR C[…] CROWN ROT AND APPLICATION” (priority 2022, published 2024)
